According to US9169252B2 (BRISTOL-MYERS SQUIBB COMPANY, priority 2014, dated 2015):
Like-named read-outs stand apart in the source and are kept apart here.

Tests used:
[1] = test system: TLR2 induced IL-6 in peripheral blood mononuclear cells (PBMCs); assay: PBMC TLR2 Induced IL-6 Assay; format: cell-based, human; settings: human PBMCs, lipoteichoic acid stimulated, IL-6 by ELISA; for IC50: read-out: Cell IC50; for EC50: read-out: Cell EC50
Procedure, shortened: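 Lipoteichoic acid at 10 µg/ml served as TLR2 stimulus for 5 hours, following a 30-minute compound pretreatment at 37° C. Cells were Ficoll-isolated human PBMCs, 250000 cells/well, cultured in RPMI plus 10% heat-inactivated FCS.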

IRAK4 = IRAK4 (Homo sapiens (Human), UniProt Q9NWZ3); assay: IRAK4 Inhibition Assay; format: biochemical; settings: ATP 500 μM; IRAK4 0.6 nM; read-out: IRAK4 IC50
Chain of IRAK4 (Q9NWZ3 whole entry, species assumed): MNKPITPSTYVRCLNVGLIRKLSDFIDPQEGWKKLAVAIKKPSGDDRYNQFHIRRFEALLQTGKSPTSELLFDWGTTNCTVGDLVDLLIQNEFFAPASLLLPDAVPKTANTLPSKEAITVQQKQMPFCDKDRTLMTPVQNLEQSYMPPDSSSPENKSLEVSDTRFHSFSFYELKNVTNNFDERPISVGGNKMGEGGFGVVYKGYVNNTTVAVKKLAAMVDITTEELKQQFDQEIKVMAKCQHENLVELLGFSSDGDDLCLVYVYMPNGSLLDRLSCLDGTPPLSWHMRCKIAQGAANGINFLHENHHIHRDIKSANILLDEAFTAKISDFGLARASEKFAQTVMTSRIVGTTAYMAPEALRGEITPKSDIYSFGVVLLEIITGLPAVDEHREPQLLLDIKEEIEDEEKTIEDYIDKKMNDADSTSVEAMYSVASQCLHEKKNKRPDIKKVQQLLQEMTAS
Procedure, shortened: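 IRAK4 combined with fluorescent substrate and compounds, reacted 60 min at room temperature, stopped with 35 mM EDTA. Substrate and phosphorylated product separated electrophoretically on a Caliper LabChip 3000 mobility-shift reader.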

Row | SMILES | IC50 (IRAK4) | IC50 ([1]; Homo sapiens, PBMC) | EC50 ([1]; Homo sapiens, PBMC) | EC50 [1]
1 | C[C@H](F)CNc1cc(-n2ccc3cc(C#N)cnc32)ncc1C(=O)NC[C@@H](F)C(C)(C)O [Example 507] | 1.4 nM | 374 nM |  | 
2 | CCCOC(=O)NCc1cnc2c(ccn2-c2cc(NC(C)C)c(C(=O)NC[C@@H](F)C(C)(C)O)cn2)c1 [Example 508] | 2.8 nM | 224 nM |  | 
3 | CC(C)(O)[C@H](F)CNC(=O)c1cnc(-n2ccc3cc(C#N)cnc32)cc1N[C@H]1C[C@H](C(C)(C)O)C1 [Example 509] | 1.6 nM | 128 nM |  | 
4 | CCCC(=O)NCc1cnc2c(ccn2-c2cc(NC(C)C)c(C(=O)NC[C@@H](F)C(C)(C)O)cn2)c1 [Example 510] | 3.2 nM | 250 nM |  | 
5 | CC(C)Nc1cc(-n2ccc3cc(CNC(=O)CC4CCCCC4)cnc32)ncc1C(=O)NC[C@@H](F)C(C)(C)O [Example 511] | 5.4 nM | 47 nM |  | 
6 | CC(C)CCC(=O)NCc1cnc2c(ccn2-c2cc(NC(C)C)c(C(=O)NC[C@@H](F)C(C)(C)O)cn2)c1 [Example 512] | 3.5 nM | 541 nM |  | 
7 | CCCNC(=O)NCc1cnc2c(ccn2-c2cc(NC(C)C)c(C(=O)NC[C@@H](F)C(C)(C)O)cn2)c1 [Example 513] | 5.9 nM | 389 nM |  | 
8 | CC(C)Nc1cc(-n2ccc3cc(CNC(=O)NCc4ccccc4)cnc32)ncc1C(=O)NC[C@@H](F)C(C)(C)O [Example 514] | 8.2 nM | 47 nM |  | 
9 | CC(C)Nc1cc(-n2ccc3cc(CNC(=O)Cc4ccccc4)cnc32)ncc1C(=O)NC[C@@H](F)C(C)(C)O [Example 515] | 2.2 nM | 542 nM |  | 
10 | CCCCNC(=O)NCc1cnc2c(ccn2-c2cc(NC(C)C)c(C(=O)NC[C@@H](F)C(C)(C)O)cn2)c1 [Example 516] | 8.6 nM | 414 nM |  | 
11 | CC(C)(F)[C@H](F)CNC(=O)c1cnc(-n2ccc3cc(C#N)cnc32)cc1Nc1cccc(O)c1 [Example 517] | 1.2 nM | 113 nM |  | 
12 | CC(C)Nc1cc(-n2ccc3cc(CNC(=O)CC4CCOCC4)cnc32)ncc1C(=O)NC[C@@H](F)C(C)(C)O [Example 518] | 14 nM | 94 nM |  | 
13 | CC(C)Nc1cc(-n2ccc3cc(CNC(=O)CC(C)(C)C)cnc32)ncc1C(=O)NC[C@@H](F)C(C)(C)O [Example 519] | 2.7 nM | 126 nM |  | 
14 | CC(C)Nc1cc(-n2ccc3cc(CNC(=O)C4CCOC4)cnc32)ncc1C(=O)NC[C@@H](F)C(C)(C)O (some centres unmarked) [Example 520] | 10.5 nM | 347 nM |  | 
15 | CC(C)(O)c1cnc(Nc2cc(-n3ncc4cc(C#N)cnc43)ncc2C(=O)NC[C@@H](F)C(C)(C)O)s1 [Example 521, (R)-6-(5-Cyano-1H-pyrazolo[3,4-b]pyridin-1-yl)-N-(2-fluoro-3-hydroxy-3-methylbutyl)-4-((5-(2-hydroxypropan-2-yl)thiazol-2-yl)amino)nicotinamide] | 3.5 nM |  | 460 nM | 
16 | CC(C)(O)[C@H](F)CNC(=O)c1cnc(-n2ncc3cc(C#N)cnc32)cc1Nc1cccc(C#N)c1 [Example 522] | 2.6 nM |  | 177 nM | 
17 | CC(C)(O)[C@H](F)CNC(=O)c1cnc(-n2ncc3cc(C#N)cnc32)cc1Nc1ccc2ncsc2c1 [Example 524] | 2.6 nM |  | 132 nM | 
18 | CC(C)(O)[C@H](F)CNC(=O)c1cnc(-n2ncc3cc(C(N)=O)cnc32)cc1Nc1ccc2ncoc2c1 [Example 525] | 1.6 nM |  | 253 nM | 
19 | CC(C)(O)[C@H](F)CNC(=O)c1cnc(-n2ncc3cc(C#N)cnc32)cc1Nc1ccc(-n2cncn2)cc1 [Example 526] | 3.7 nM |  | 113 nM | 
20 | Cn1nnnc1-c1ccc(Nc2cc(-n3ncc4cc(C#N)cnc43)ncc2C(=O)NC[C@@H](F)C(C)(C)O)cc1 [Example 527] | 3 nM |  | 228 nM | 
21 | CC(C)(O)[C@H](F)CNC(=O)c1cnc(-n2ncc3cc(C#N)cnc32)cc1Nc1cccc(C#N)c1F [Example 528] | 3.3 nM | 326 nM | 91 nM | 
22 | Cn1cc(-c2ccc(Nc3cc(-n4ncc5cc(C#N)cnc54)ncc3C(=O)NC[C@@H](F)C(C)(C)O)cc2)cn1 [Example 531] | 2.2 nM | 67 nM |  | 
23 | CC(C)(O)[C@H](F)CNC(=O)c1cnc(-n2ncc3cc(C#N)cnc32)cc1N[C@@H]1CCN(c2ncc(F)cn2)C1 [Example 532, 6-(5-Cyano-1H-pyrazolo[3,4-b]pyridin-1-yl)-N—((R)-2-fluoro-3-hydroxy-3-methylbutyl)-4-(((R)-1-(5-fluoropyrimidin-2-yl)pyrrolidin-3-yl)amino)nicotinamide] | 5.5 nM |  |  | 127 nM
24 | CC(C)(O)[C@H](F)CNC(=O)c1cnc(-n2ncc3cc(C#N)cnc32)cc1N[C@H]1CCN(c2ncc(F)cn2)C1 [Example 533] | 10.3 nM |  | 194 nM | 
25 | CC(C)(O)[C@H](F)CNC(=O)c1cnc(-n2ncc3cc(C#N)cnc32)cc1NC1CCN(c2ccccc2)CC1 [Example 535] | 4 nM |  | 185 nM | 

Further lines, with some results ahead:

Row | IC50 (IRAK4) | SMILES | IC50 ([1]; Homo sapiens, PBMC) | EC50 ([1]; Homo sapiens, PBMC) | EC50 [1]
26 | 8.1 nM | COc1cnc(N2CC[C@@H](Nc3cc(-n4ncc5cc(C#N)cnc54)ncc3C(=O)NC[C@@H](F)C(C)(C)O)C2)nc1 [Example 536] |  | 189 nM | 
27 | 6.8 nM | CC(C)(O)[C@H](F)CNC(=O)c1cnc(-n2ncc3cc(C#N)cnc32)cc1N[C@@H]1CCN(c2ncccn2)C1 [Example 537] |  | 159 nM | 
28 | 9.6 nM | CC(C)(O)[C@H](F)CNC(=O)c1cnc(-n2ncc3cc(C#N)cnc32)cc1N[C@@H]1CCN(C(=O)c2ccc(F)cc2F)C1 [Example 538] | 698 nM |  | 
29 | 6.3 nM | CC(C)(O)[C@H](F)CNC(=O)c1cnc(-n2ncc3cc(C#N)cnc32)cc1NC1CN(c2ncc(F)cn2)C1 [Example 539] |  | 256 nM | 
30 | 3 nM | CC(C)(O)[C@H](F)CNC(=O)c1cnc(-n2ncc3cc(C#N)cnc32)cc1NC1CCN(c2ncc(F)cn2)CC1 [Example 540] | 158 nM |  | 
31 | 14.4 nM | CC(C)(O)[C@H](F)CNC(=O)c1cnc(-n2ncc3cc(C#N)cnc32)cc1NC1CN(c2ncc(Cl)cn2)C1 [Example 541] | 149 nM |  | 
32 | 7.3 nM | COC(=O)N1CC(Nc2cc(-n3ncc4cc(C#N)cnc43)ncc2C(=O)NC[C@@H](F)C(C)(C)O)C1 [Example 542] | 973 nM |  | 
33 | 6.8 nM | CCOC(=O)N1CC(Nc2cc(-n3ncc4cc(C#N)cnc43)ncc2C(=O)NC[C@@H](F)C(C)(C)O)C1 [Example 543] | 404 nM |  | 
34 | 3.7 nM | CC(C)(O)[C@H](F)CNC(=O)c1cnc(-n2ncc3cc(C#N)cnc32)cc1NC1COC1 [Example 546] |  | 257 nM | 
35 | 16.6 nM | CC(C)(O)[C@H](F)CNC(=O)c1cnc(-n2ncc3cc(F)cnc32)cc1NC1CCCOC1 (some centres unmarked) [Example 547] | 591 nM | 65 nM | 
36 | 16.8 nM | CC(C)(O)[C@H](F)CNC(=O)c1cnc(N2CCc3cc(C#N)cnc32)cc1NC1COC1 [Example 549] | 757 nM | 413 nM | 
37 | 10.3 nM | CC(C)(O)[C@H](F)CNC(=O)c1cnc(-n2ncc3cc(F)cnc32)cc1NC1COC1 [Example 550] |  | 416 nM | 
38 | 12.6 nM | CC(C)(O)[C@H](F)CNC(=O)c1cnc(-n2ncc3cc(Cl)cnc32)cc1NC1COC1 [Example 551] | 212 nM |  | 
39 | 13.4 nM | CO[C@H]1CC[C@H](NC(=O)c2cnc(-n3ncc4cc(C#N)cnc43)cc2NC2COC2)CC1 [Example 552] | 213 nM |  | 
40 | 11.2 nM | CC(C)(O)CCNC(=O)c1cnc(-n2ncc3cc(C#N)cnc32)cc1NC1COC1 [Example 553] | 298 nM |  | 
41 | 5.5 nM | CC(C)(O)[C@H](F)CNC(=O)c1cnc(-n2ncc3cc(C#N)cnc32)cc1NC1COCC1(F)F (some centres unmarked) [Example 554] | 370 nM |  | 
42 | 7 nM | CC(C)(O)[C@H]1CC[C@H](NC(=O)c2cnc(-n3ncc4cc(C#N)cnc43)cc2NC2COC2)CC1 [Example 555] | 47 nM |  | 
43 | 6.2 nM | CC(C)(O)[C@H]1CC[C@H](NC(=O)c2cnc(-n3ncc4cc(Cl)cnc43)cc2NC2COC2)CC1 [Example 556] | 305 nM |  | 
44 | 5.1 nM | CC(C)CCNC(=O)c1cnc(-n2ncc3cc(C#N)cnc32)cc1NC1COC1 [Example 557] | 475 nM |  | 
45 | 6.1 nM | N#Cc1cc2cnn(-c3cc(NC4COC4)c(C(=O)NCCC4CC4)cn3)c2nc1N [Example 558] | 615 nM |  | 
46 | 5.3 nM | CCCCNC(=O)c1cnc(-n2ncc3cc(C#N)c(N)nc32)cc1NC1COC1 [Example 559] | 18 nM |  | 
47 | 3.4 nM | CC(C)CCNC(=O)c1cnc(-n2ncc3cc(C#N)c(N)nc32)cc1NC1COC1 [Example 560] | 254 nM |  | 
48 | 7.8 nM | CCCCNC(=O)c1cnc(-n2ncc3cc(C#N)cnc32)cc1NC1COC1 [Example 561] | 321 nM |  | 
49 | 12.5 nM | CC(C)(O)[C@H](F)CNC(=O)c1cnc(-n2ncc3cc(F)cnc32)cc1NC1CCOCC1 [Example 562] |  | 255 nM | 
50 | 5 nM | CC(C)(O)[C@H](F)CNC(=O)c1cnc(-n2ncc3cc(C#N)cnc32)cc1NCCC(F)(F)F [Example 563, (R)-6-(5-Cyano-1H-pyrazolo[3,4-b]pyridin-1-yl)-N-(2-fluoro-3-hydroxy-3-methylbutyl)-4-((3,3,3-trifluoropropyl)amino)nicotinamide] |  | 159 nM | 
51 | 20.1 nM | COc1cnc(NC(=O)c2cnc(-n3ncc4cc(C#N)cnc43)cc2NC(C)C)cn1 [Example 564] |  | 659 nM | 
52 | 17.2 nM | CC(C)Nc1cc(-n2ncc3cc(C#N)cnc32)ncc1C(=O)NCc1nn[nH]n1 [Example 566] |  | 637 nM | 
